Series [1] deals with T1, Hematopoietic prostaglandin D synthase (Homo sapiens, UniProt O60760). Put plainly: Inhibition of HPGDS.
Series [2] relates to Liver microsomes. Kind of series: Half life in human liver microsomes. It counts as ADME, Microsome. Background: Liver microsomes are vesicles of endoplasmic reticulum, rich in cytochrome P450 enzymes.
In series [3] the test system is Liver microsomes. Put plainly: (§1) Metabolic stability in human liver microsomes assessed as compound remaining after 30 mins. It counts as ADME, Microsome. The following applies: microsomes, 0.5 h.
The target in series [4] is ERG (KCNH2 potassium channel) (Homo sapiens, UniProt Q12809). Put plainly: Displacement of dofetilide from ERG at 10 uM. The following applies: probe dofetilide.
Chain of ERG (KCNH2 potassium channel) (Q12809 whole entry): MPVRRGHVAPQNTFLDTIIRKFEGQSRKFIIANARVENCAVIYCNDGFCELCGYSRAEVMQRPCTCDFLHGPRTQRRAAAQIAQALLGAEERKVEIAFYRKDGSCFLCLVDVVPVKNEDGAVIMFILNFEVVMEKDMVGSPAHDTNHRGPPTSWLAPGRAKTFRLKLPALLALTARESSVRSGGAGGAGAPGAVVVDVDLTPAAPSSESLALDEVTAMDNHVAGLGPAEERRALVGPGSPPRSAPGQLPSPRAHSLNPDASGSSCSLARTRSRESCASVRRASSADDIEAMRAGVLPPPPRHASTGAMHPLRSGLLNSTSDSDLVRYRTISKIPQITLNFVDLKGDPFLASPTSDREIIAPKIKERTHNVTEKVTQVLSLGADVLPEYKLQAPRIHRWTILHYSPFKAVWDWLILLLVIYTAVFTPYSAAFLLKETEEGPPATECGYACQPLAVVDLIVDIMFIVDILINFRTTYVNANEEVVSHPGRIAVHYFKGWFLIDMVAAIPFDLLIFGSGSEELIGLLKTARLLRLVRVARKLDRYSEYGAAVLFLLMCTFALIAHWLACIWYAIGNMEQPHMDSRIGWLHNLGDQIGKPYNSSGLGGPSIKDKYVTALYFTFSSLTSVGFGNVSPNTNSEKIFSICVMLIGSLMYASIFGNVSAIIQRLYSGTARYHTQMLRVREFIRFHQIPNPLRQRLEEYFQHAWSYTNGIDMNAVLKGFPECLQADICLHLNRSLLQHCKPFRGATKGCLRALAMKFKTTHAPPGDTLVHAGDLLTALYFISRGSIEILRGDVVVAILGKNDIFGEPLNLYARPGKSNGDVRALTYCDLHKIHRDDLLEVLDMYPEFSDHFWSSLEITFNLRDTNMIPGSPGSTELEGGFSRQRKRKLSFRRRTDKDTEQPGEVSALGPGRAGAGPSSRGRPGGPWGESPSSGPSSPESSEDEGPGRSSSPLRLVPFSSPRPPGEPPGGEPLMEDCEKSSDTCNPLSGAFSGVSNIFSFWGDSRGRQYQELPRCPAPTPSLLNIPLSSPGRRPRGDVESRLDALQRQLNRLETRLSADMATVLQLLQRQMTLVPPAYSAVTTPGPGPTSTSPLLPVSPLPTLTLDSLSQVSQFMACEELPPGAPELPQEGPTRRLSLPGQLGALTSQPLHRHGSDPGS
Series [5] deals with T1, Hematopoietic prostaglandin D synthase. Put plainly: Inhibition of human recombinant HPGDS using PGH2 as substrate assessed as production of PGD2 preincubated for 10 mins prior substrate addition measured after 42 secs by TBA-based fluorescence assay.
Series [6] can be described thus: as §1. It counts as ADME, Microsome. The following applies: liver microsomes, read-out: Stability.

Some results are limits rather than exact numbers.

Consider eight compounds from ChEMBL document CHEMBL2034964, “Investigation of the binding pocket of human hematopoietic prostaglandin (PG) D2 synthase (hH-PGDS): a tale of two waters” (Bioorg Med Chem Lett, 2012).

Broadly, the IC50 is the point on the concentration scale where inhibition reaches its midpoint. Broadly, the inhibition is the drop in the measured response relative to a control, in per cent. A higher inhibition goes with a response far below the control.

T1 sequence (O60760 whole entry): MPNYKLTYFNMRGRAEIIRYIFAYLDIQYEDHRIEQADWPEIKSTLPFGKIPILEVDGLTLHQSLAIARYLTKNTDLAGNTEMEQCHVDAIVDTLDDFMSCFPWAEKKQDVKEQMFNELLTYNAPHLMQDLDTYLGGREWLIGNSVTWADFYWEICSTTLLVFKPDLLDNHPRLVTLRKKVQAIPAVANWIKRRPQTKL

In turn, `Cc1nc(-c2ccccc2)sc1C(=O)Nc1ccc(S(N)(=O)=O)cc1` gave a concentration for half-maximal inhibition (IC50) in series [1] of less than 1 nM.

Regarding `COc1ccccc1N1CCN(C(=O)c2ccc[nH]2)CC1`, the concentration for half-maximal inhibition (IC50) in series [1] worked out at 6900 nM.

Consider `O=C(NC1CCN(CC(F)(F)F)CC1)c1ccc(-c2ccccc2)nc1`, for which half-maximal inhibition in series [1] (IC50) was put at 0.2 nM.

The compound `O=C(NCCN1CCOCC1)c1ccc(-c2nccc3ccccc23)cc1` displayed a t1/2 in the series with Liver microsomes [2] of 1 h. Further, the Stability in the series on Liver microsomes [3] is reported as 90%. This compound displayed an inhibition at 10 µM in series [4] of 3%.

On to `O=C(Nc1ccc(N2CCN(C(=O)N3CCOCC3)CC2)cc1)c1cnc(Oc2ccccc2)nc1`, for which the midpoint of inhibition in series [1], the IC50, lay at 280 nM.

On to `O=C(NCCN1CCOCC1)c1ccc(-c2ccccn2)cc1`, for which the IC50 in series [5] was determined as 274 nM. For the same compound, the remaining at 0.5 h in series [6] is 20%.

With `Cc1cc2ccccc2c(-c2ccc(C(=O)NCCN3CCOCC3)cc2)n1`, the remaining at 0.5 h in series [6] is 76%.

For `O=C(NCCN1CCOCC1)c1ccc(-c2c(O)ccc3ccccc23)cc1`, in series [5], the IC50 was 662 nM. The remaining at 0.5 h in series [6] turned out to be 94%.
